Experimental data from ChEMBL document CHEMBL3580593, “Parthenolide prodrug LC-1 slows growth of intracranial glioma” (Bioorg Med Chem Lett, 2015).
One block for each compound: values may come before it. Active and inactive are the calls of the source. No cut-off for these calls is given here.

How the values were obtained:
Mus musculus [1] = assay: Toxicity in C57BL/6 mouse assessed as WBC count at 100 mg/kg, po formulated in HP-beta CD; format: organism-based; details: in vivo
[2] = Drug uptake in CD1 mouse perfused brain at 100 mg/kg, po after 1 hr by LC-MS/MS analysis; format: ADME, organism-based; details: read-out: Drug uptake
[3] = Half life in mouse serum; format: ADME, cell-free
[4] = Drug uptake in CD1 mouse plasma at 100 mg/kg, po after 1 hr by LC-MS/MS analysis; format: ADME, organism-based
Mus musculus [5] = assay: Toxicity in C57BL/6 mouse assessed as platelet count at 100 mg/kg, po formulated in HP-beta CD; format: organism-based; details: in vivo
GL261 [6] = assay: Antitumor activity in mouse GL261-GFP-Luc cells allografted in C57BL/6J mouse assessed as increase in mouse survival time at 100 mg/kg, po relative to control; format: functional, organism-based
Nucleic Acid = assay: Ratio of drug level in brain to plasma in CD1 mouse assessed as elimination product parthenolide at 100 mg/kg, po after 4 hrs by LC-MS/MS analysis; format: ADME, organism-based
GL261 [7] = assay: Antitumor activity in mouse GL261-GFP-Luc cells allografted in C57BL/6J mouse assessed as delay in tumor growth at 100 mg/kg, po relative to control; format: functional, organism-based
Plasma [8] = assay: Drug uptake in CD1 mouse plasma assessed as elimination product parthenolide at 100 mg/kg, po after 4 hrs by LC-MS/MS analysis; format: ADME, organism-based; details: in vivo
Brain [9] = assay: Drug uptake in CD1 mouse perfused brain assessed as elimination product parthenolide at 100 mg/kg, po after 4 hrs by LC-MS/MS analysis; format: ADME, organism-based; details: in vivo
[10] = Ratio of drug level in brain to plasma in Wistar rat at 100 mg/kg, po after 3 hrs by UPLC-MS/MS analysis; format: ADME, organism-based; details: read-out: BPR
[11] = Cytotoxicity against human GBM6 cells assessed as cell viability after 48 hrs by Alamar Blue assay; format: functional, cell-based; details: GBM6, 48 h
Plasma [12] = assay: Drug uptake in CD1 mouse plasma assessed as elimination product parthenolide at 100 mg/kg, po after 1 hr by LC-MS/MS analysis; format: ADME, organism-based; details: in vivo
[13] = Cytotoxicity against […] GL261-GFP-Luc cells assessed as cell viability after 48 hrs by Alamar Blue assay; format: functional, cell-based; details: Mus musculus, GL261, 48 h
[14] = Ratio of drug level in brain to plasma in CD1 mouse at 100 mg/kg, po after 1 hr by LC-MS/MS analysis; format: ADME, organism-based; details: read-out: BPR
Mus musculus [15] = assay: Toxicity in C57BL/6 mouse assessed as RBC count at 100 mg/kg, po formulated in HP-beta CD; format: organism-based; details: in vivo
[16] = Ratio of drug level in brain to plasma in CD1 mouse at 100 mg/kg, po after 4 hrs by LC-MS/MS analysis; format: ADME, organism-based; details: read-out: BPR
U-87 MG = assay: Cytotoxicity against human U87MG cells assessed as cell viability after 48 hrs by Alamar Blue assay; format: functional, cell-based, U-87MG ATCC
Brain [17] = assay: Drug uptake in CD1 mouse perfused brain assessed as elimination product parthenolide at 100 mg/kg, po after 1 hr by LC-MS/MS analysis; format: ADME, organism-based; details: in vivo
[18] = Drug uptake in CD1 mouse perfused brain at 100 mg/kg, po after 4 hrs by LC-MS/MS analysis; format: ADME, organism-based; details: read-out: Drug uptake
[19] = Drug uptake in CD1 mouse plasma at 100 mg/kg, po after 4 hrs by LC-MS/MS analysis; format: ADME, organism-based
Mus musculus [20] = assay: Toxicity in C57BL/6 mouse assessed as hemoglobin level at 100 mg/kg, po formulated in HP-beta CD; format: organism-based; details: in vivo
[21] = Ratio of drug level in brain to plasma in Wistar rat at 100 mg/kg, po after 30 mins by UPLC-MS/MS analysis; format: ADME, organism-based; details: read-out: BPR

- concentration at 1 h [2]: 6250 ng/g
- half-life [3]: 37.8 min
- concentration at 1 h [4]: 2960 ng/mL
- BPR (Nucleic Acid): 0.5
- Cp (Plasma [8]): 211 ng/mL
- Drug uptake (Brain [9]): 113 ng/g
- Kp at 3 h [10]: 1.91
- Cp (Plasma [12]): 2142 ng/mL
- Kp at 1 h [14]: 2.1
- Kp at 4 h [16]: 3
- Drug uptake (Brain [17]): 2402 ng/g
- concentration at 4 h [18]: 342 ng/g
- concentration at 4 h [19]: 115 ng/mL
- Kp at 0.5 h [21]: 1.84
Compound: C/C1=C\CC[C@@]2(C)O[C@H]2[C@H]2OC(=O)[C@@H](CN(C)C)[C@@H]2CC1
- Activity (Mus musculus [1]): Non-toxic
- Activity (Mus musculus [5]): Non-toxic
- Activity (GL261 [6]): Active
- Activity (GL261 [7]): Active
- IC50 [11]: 3.5 µM
- IC50 [13]: 6.9 µM
- Activity (Mus musculus [15]): Non-toxic
- IC50 (U-87 MG): 8.8 µM
- Activity (Mus musculus [20]): Non-toxic

Compound: C=C1C(=O)O[C@@H]2C3O[C@]3(C)CC/C=C(\C)CC[C@@H]12 (stereo partly specified)
- IC50 [11]: 3.4 µM
- IC50 [13]: 7.6 µM
- IC50 (U-87 MG): 8.8 µM
